Ends that are not written are not given here.

In one assay the test system is IA. Particulars: Abruzzo et al., 1997; cited from earlier work.
For another assay, the system named is Aspergillus. Particulars: Espinel-Ingroff, 1998; cited from earlier work.
Assay [1] has as its system A. fumigatus hyphae. As to conditions: Bowman et al., 2002; cited from earlier work.
In assay [2] the test system is A. fumigatus hyphae. Put plainly: BRASIL selection of CX7C phage display library on A. fumigatus hyphae. Format: binding, Aspergillus fumigatus. As to conditions: after 5 selection rounds, clones with the motif / 40 random phage clones sequenced. The protocol:
(§1) To identify potential host ligands that bind on the surface of A. fumigatus conidia and hyphae, a phage display library (CX7C) for A. fumigatus conidia and hyphae binding ligands using BRASIL is screened. The Aspergillus fumigatus clinical isolate AF293 (currently being used in the Aspergillus sequencing project, provided kindly by Dr. D. Denning, Manchester, UK.) is plated on YAG plates at 37° C. for 3 days and conidia are collected. Conidia (suspensions of 10^4 conidia/ml) are incubated at 37° C. for 16-20 hours in liquid YAG medium to allow for germination to hyphae. Conidia or hyphae, collected as described earlier, were then incubated with 10^9 transducing units (TU) of CX7C phage display library (Arap et al., 2002). A phage-conidia/hyphae suspension in an upper aqueous phase is centrifuged through a non-miscible organic phase with an intermediate specific density. Upon optimized centrifugation conditions conidia or hyphae entered the lower organic phase and pellet at the bottom of the tube, carrying with them only the specifically bound phage (FIG. 10). Dibutylphtalate:Cyclohexane ratio of the organic phase is preferably 6:1. Hyphae needed 100,000 g for pelleting as compared to 10,000 g for conidia (FIG. 10). The conidia/hyphae pellet is then recovered (after freezing, FIG. 10), and the phage is rescued by infection of E. coli K91kan bacteria (FIG. 1). Amplified phage was then used for subsequent rounds of selection (FIG. 10)
(§2) Infected E. coli K91Kan were incubated overnight in LB medium with kanamycin as selection marker (70 μg/ml), tetracycline that served as inducer of phage multiplication (40 μg/ml, the phage also contains the tetracycline resistance gene tetR), and voriconazole for suppression of conidial and hyphal growth (4 μg/ml). The next day, the phage was first separated from E. coli by centrifuigation, recovered using PEG/NaCl, and finally tittrated (to 109 TU units/μl) in order to be used in subsequent selection rounds.
(§3) After 4 rounds of selection for conidia 5 rounds for hyphae, peptide-inserts of 40 random phage clones (each for conidia and hyphae) were sequenced and analyzed for peptide sequences according to enrichment and by ClustalW sequence alignment. Selected motifs were then used to search non-redundant protein databanks.

In another assay the test system is A. fumigatus conidia. Put plainly: BRASIL selection of CX7C phage display library on A. fumigatus conidia. Format: binding, Aspergillus fumigatus. Particulars: after 4 selection rounds, clones with the motif / 40 random phage clones sequenced. Here is the method:
as §1, §2, §3

Another assay deals with AF293 conidia. Put plainly: Inhibition of WGHSRDE phage binding on AF293 conidia by synthetic peptide. Particulars: FIG. 13; synthetic peptide 0.1, 1, 10 and 100 μM. Details: species or system Aspergillus fumigatus. The protocol:
To validate that the CWGHSRDEC (SEQ ID NO:1) phage is mediating specific binding to AF293 conidia, the CWGHSRDEC (SEQ ID NO:) phage and the AF293 conidia are co-incubated in the presence of increasing concentrations of the CWGHSRDEC (SEQ ID NO: 1) peptide. A decrease in the amount of CWGHSRDEC (SEQ ID NO: 1) phage binding on the surface of AF293 conidia after adding the CWGHSRDEC (SEQ ID NO:1) peptide indicates the CWGHSRDEC (SEQ ID NO:1) peptide binds to the surface of AF293 conidia thus preventing the corresponding phage from binding on these sites.
Protocol: Increasing concentrations of the synthetic CWGHSRDEC (SEQ ID NO:1) peptide or a control scramble peptide (e.g., CLLSATPSC (SEQ ID NO:)) (0.1, 1, 10 and 100 μM) is incubated with 200 μl of a 5×10^8 AF293 conidia/ml solution in 1% BSA/PBS for 1 hour at room temperature and 10^8 TU of CWGHSRDEC (SEQ ID NO:1) phage is added and incubated for 2 hours at room temperature. The conidia/phage suspension is centrifuged over an organic phase for 10 min at 10,000 g. Pelleted conidia/phage is used for k91kan infection. The BRASIL method is followed as previously mentioned. A potential decrease in the phage binding on AF293 conidia as a function of the addition of the CWGHSRDEC (SEQ ID NO:1) peptide is graphed as shown in FIG. 13 (Giordano et al, 2001): […]

Consider `CC[C@H](C)C[C@H](C)CCCCCCCCC(=O)N[C@H]1C[C@@H](O)[C@@H](NCCN)NC(=O)[C@@H]2[C@@H](O)CCN2C(=O)[C@H]([C@H](O)CCN)NC(=O)[C@H]([C@H](O)[C@@H](O)c2ccc(O)cc2)NC(=O)[C@@H]2C[C@@H](O)CN2C(=O)[C@H]([C@@H](C)O)NC1=O` [CAS, Caspofungin], for which, in the assay with IA, the “efficacy in animal models of IA” value is reported as “shown efficacy”. Moreover, the “Aspergillus growth in vitro” value in the assay on Aspergillus is listed as “growth reduction”. Moreover, the “viability of growing A. fumigatus hyphae by DiBAC staining” value in the assay on A. fumigatus hyphae [1] is “kills the apical tips of hyphae”. In the case of “DLTHVSA (listed as Aspergillus fumigatus)”, the Times identified with A. fumigatus hyphae [2] is given as 1/40. On to “ELLRRGGS (ELRRGGS; listed as Aspergillus fumigatus)”, for which the Times identified in the assay on A. fumigatus conidia is given as 2/40. Same read-out and setting: for “GARASGS (listed as Aspergillus fumigatus)” the value was 4/40. Turning to “GGRLGPF (listed as Aspergillus fumigatus)”, the Times identified with A. fumigatus hyphae [2] is 2/40. As for “GGWGPGS (listed as Aspergillus fumigatus)”, the Times identified with A. fumigatus conidia is reported as 2/40.

Turning to “GTSRWLR (listed as Aspergillus fumigatus)”, in the assay on A. fumigatus hyphae [2], the Times identified is on record as 1/40. Consider “IGRAPQM (listed as Aspergillus fumigatus)”, for which the Times identified in the assay on A. fumigatus conidia was 2/40. On to “ISTFARG (listed as Aspergillus fumigatus)”, for which, in the assay on A. fumigatus hyphae [2], the Times identified is reported as 1/40. In the case of “LLSATPS (listed as Aspergillus fumigatus)”, in the assay on A. fumigatus conidia, the Times identified was 8/40. With “NPGYWGN (listed as Aspergillus fumigatus)”, in the assay with A. fumigatus hyphae [2], the Times identified was 1/40.

As to “SLVRGGT (listed as Aspergillus fumigatus)”, the Times identified with A. fumigatus conidia is 2/40. On the same count and under the same terms, with “SSGDRTA (listed as Aspergillus fumigatus)” the figure was 2/40.

As to “VGVEYRT (listed as Aspergillus fumigatus)”, the Times identified in the assay with A. fumigatus hyphae [2] is on record as 1/40.

Consider “VVGSADG (listed as Aspergillus fumigatus)”, for which the Times identified in the assay on A. fumigatus hyphae [2] is listed as 1/40.

Consider “WGHSRDE (not fully specified (N-terminus, C-terminus, bridges); listed as Aspergillus fumigatus) [synthetic peptide used as …]”, for which the Times identified with A. fumigatus conidia was 12/40. The “inhibition of WGHSRDE phage binding on AF293 conidia” value in the assay with AF293 conidia is “specific inhibition”. In the case of “XCDSSVS (not fully specified; X: residue not identified in the source; listed as Aspergillus fumigatus)”, in the assay on A. fumigatus hyphae [2], the Times identified is on record as 1/40.

Source of the values: patent US20050187161A1, “Biopanning as an approach to study the pathogenesis of and produce novel treatment modalities for invasive Aspergillosis” (priority 2003, published 2005).
